From patent publication US20090142347A1, “Tissue-Nonspecific Alkaline Phosphatase (TNAP): a Therapeutic Target for Arterial Calcification” (THE BURNHAM INSTITUTE FOR MEDICAL RESEARCH, priority 2004, published 2009)

Experiments:
hPLALP (G108, G429) = target: T1, hPLALP (G108, G429) (Homo sapiens, UniProt P05187, E451G/Q130G); test: Ki of uncompetitive inhibitors (pNPP substrate); format: biochemical; conditions: hPLALP mutant (G108, G429); read-out: Ki for various inhibitors
T1 construct: made in house; host or cells: COS-7 (given only for the TNAP-Flag constructs)
T1 sequence (P05187 23-506 Q130G/E451G limits assumed): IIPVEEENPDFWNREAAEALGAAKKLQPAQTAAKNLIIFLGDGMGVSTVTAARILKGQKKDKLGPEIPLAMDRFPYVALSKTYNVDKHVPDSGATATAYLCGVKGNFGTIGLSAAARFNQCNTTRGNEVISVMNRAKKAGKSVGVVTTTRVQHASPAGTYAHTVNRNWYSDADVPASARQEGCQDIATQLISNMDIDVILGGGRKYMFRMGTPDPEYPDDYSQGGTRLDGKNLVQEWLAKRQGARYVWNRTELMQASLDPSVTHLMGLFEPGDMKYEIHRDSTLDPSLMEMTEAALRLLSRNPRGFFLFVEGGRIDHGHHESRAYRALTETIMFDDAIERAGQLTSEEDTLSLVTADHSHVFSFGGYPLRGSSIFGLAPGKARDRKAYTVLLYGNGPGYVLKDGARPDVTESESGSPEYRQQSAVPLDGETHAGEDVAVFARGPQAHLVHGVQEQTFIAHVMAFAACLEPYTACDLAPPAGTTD
Protocol: (§1) In brief, samples of the enzymes were added to microtiter plates coated with M2 anti-FLAG antibody, and saturating activities with the substrate pNPP were measured in 1 M DEA/HCl buffer, pH 9.8, containing 1 mM MgCl2 and 20 .micro.M ZnCl2.

hPLALP G429 = target: T2, hPLALP G429 (Homo sapiens, UniProt P05187, E451G); test: Ki of uncompetitive inhibitors (pNPP substrate); format: biochemical; conditions: hPLALP mutant G429; read-out: Ki for various inhibitors
T2 construct: made in house; host or cells: COS-7 (given only for the TNAP-Flag constructs)
T2 sequence (P05187 23-506 E451G limits assumed): as the sequence (P05187 23-506 Q130G/E451G limits assumed) above, with G108Q counted along it
Protocol: as §1

hPLALP = target: T3, hPLALP (Homo sapiens, UniProt P05187); test: Ki of uncompetitive inhibitors (pNPP substrate); format: biochemical; conditions: read-out: Ki for various inhibitors
T3 construct: made in house
T3 sequence (P05187 23-506 limits assumed): as the sequence (P05187 23-506 Q130G/E451G limits assumed) above, with G108Q, G429E counted along it
Protocol: as §1

hPLALP G108 = target: T4, hPLALP G108 (Homo sapiens, UniProt P05187, Q130G); test: Ki of uncompetitive inhibitors (pNPP substrate); format: biochemical; conditions: hPLALP mutant G108; read-out: Ki for various inhibitors
T4 construct: made in house; host or cells: COS-7 (given only for the TNAP-Flag constructs)
T4 sequence (P05187 23-506 Q130G limits assumed): as the sequence (P05187 23-506 Q130G/E451G limits assumed) above, with G429E counted along it
Protocol: as §1

hPLALP R428 = target: T5, hPLALP R428 (Homo sapiens, UniProt P05187, D450R); test: Ki of uncompetitive inhibitors (pNPP substrate); format: biochemical; conditions: hPLALP mutant R428; read-out: Ki for various inhibitors
T5 construct: made in house; host or cells: COS-7 (given only for the TNAP-Flag constructs)
T5 sequence (P05187 23-506 D450R limits assumed): as the sequence (P05187 23-506 Q130G/E451G limits assumed) above, with G108Q, D428R, G429E counted along it
Protocol: as §1

hPLALP E107 = target: T6, hPLALP E107 (Homo sapiens, UniProt P05187, F129E); test: Ki of uncompetitive inhibitors (pNPP substrate); format: biochemical; conditions: hPLALP mutant E107; read-out: Ki for various inhibitors
T6 construct: made in house
T6 sequence (P05187 23-506 F129E limits assumed): as the sequence (P05187 23-506 Q130G/E451G limits assumed) above, with F107E, G108Q, G429E counted along it
Protocol: as §1

hPLALP (E107, G429) = target: T7, hPLALP (E107, G429) (Homo sapiens, UniProt P05187, E451G/F129E); test: Ki of uncompetitive inhibitors (pNPP substrate); format: biochemical; conditions: hPLALP mutant (E107, G429); read-out: Ki for various inhibitors
T7 construct: made in house; host or cells: COS-7 (given only for the TNAP-Flag constructs)
T7 sequence (P05187 23-506 F129E/E451G limits assumed): as the sequence (P05187 23-506 Q130G/E451G limits assumed) above, with F107E, G108Q counted along it
Protocol: as §1

hPLALP S119 = target: T8, hPLALP S119 (Homo sapiens, UniProt P05187, N141S); test: Ki of uncompetitive inhibitors (pNPP substrate); format: biochemical; conditions: hPLALP mutant S119; read-out: Ki for various inhibitors
T8 construct: made in house; host or cells: COS-7 (given only for the TNAP-Flag constructs)
T8 sequence (P05187 23-506 N141S limits assumed): as the sequence (P05187 23-506 Q130G/E451G limits assumed) above, with G108Q, N119S, G429E counted along it
Protocol: as §1

hPLALP (E107, G108) = target: T9, hPLALP (E107, G108) (Homo sapiens, UniProt P05187, F129E/Q130G); test: Ki of uncompetitive inhibitors (pNPP substrate); format: biochemical; conditions: hPLALP mutant (E107, G108); read-out: Ki for various inhibitors
T9 construct: made in house; host or cells: COS-7 (given only for the TNAP-Flag constructs)
T9 sequence (P05187 23-506 F129E/Q130G limits assumed): as the sequence (P05187 23-506 Q130G/E451G limits assumed) above, with F107E, G429E counted along it
Protocol: as §1

hTNALP (D433, E434) = hTNALP (D433, E434) (Homo sapiens, UniProt P05186, H451E/R450D); test: biochemical
Sequence of hTNALP (D433, E434) (P05186 18-501 R450D/H451E): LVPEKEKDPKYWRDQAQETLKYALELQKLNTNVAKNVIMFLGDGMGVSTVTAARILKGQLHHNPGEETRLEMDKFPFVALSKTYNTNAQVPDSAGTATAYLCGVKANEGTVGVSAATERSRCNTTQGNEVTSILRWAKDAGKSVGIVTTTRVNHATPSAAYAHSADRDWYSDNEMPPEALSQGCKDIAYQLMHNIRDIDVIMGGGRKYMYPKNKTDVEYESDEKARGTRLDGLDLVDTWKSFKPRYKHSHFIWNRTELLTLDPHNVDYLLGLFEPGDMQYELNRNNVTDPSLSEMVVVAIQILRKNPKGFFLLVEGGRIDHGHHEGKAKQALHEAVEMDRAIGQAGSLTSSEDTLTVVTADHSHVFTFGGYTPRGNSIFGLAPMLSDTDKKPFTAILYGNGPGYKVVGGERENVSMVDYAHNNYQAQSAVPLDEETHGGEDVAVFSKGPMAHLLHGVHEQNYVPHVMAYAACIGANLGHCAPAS

SMILES | Ki (hPLALP (G108, G429)) [mM] | Ki (hPLALP G429) [mM] | Ki (hPLALP) [mM] | Ki (hPLALP G108) [mM] | Ki (hPLALP R428) [mM] | Ki (hPLALP E107) [mM] | Ki (hPLALP (E107, G429)) [mM] | Ki (hPLALP S119) [mM] | Ki (hPLALP (E107, G108)) [mM] | Ki (hTNALP (D433, E434)) [mM]
N[C@@H](Cc1ccccc1)C(=O)O [L-Phe, L-phenylalanine] | 0.49 ± 0.06 | 0.09 ± 0.01 | 0.75 ± 0.05 | 2.4 ± 0.3 | 0.54 ± 0.05 | 3.8 ± 0.4 | 1 ± 0.16 | 0.67 ± 0.08 | 23 ± 2 | –
N=C(N)NCCCC[C@H](N)C(=O)O [L-hArg, L-homoarginine] | 18 ± 2 | 12 ± 2 | 59 ± 15 | 60 ± 9 | 36 ± 4 | 5.7 ± 0.9 | 1.5 ± 0.2 | 61 ± 13 | 12 ± 1.6 | 13 ± 1.6
